Assay results as given in patent publication US10213409B2, “Substituted benzofurans, benzothiophenes, benzoselenophenes and indoles and their use as tubulin polymerisation inhibitors” (Bionomics Limited, priority 2006, dated 2019).

Legend:
Assay type in all cases: cell-based
MDA-MB-231 = test: Growth inhibition, Sulforhodamine B (SRB) or Systmex cell counting (CC) assay, MDA-MB-231; settings: Homo sapiens; MDA-MB-231 (footnote b); concentration required to inhibit net cell growth by 50%; read-out: Cancer cell line IC50
[1] = test system: Human umbilical vein endothelial cells (HUVECs), tumour type activated (Tum); test: Proliferation Assay - Activated Endothelium (MTT); settings: for IC50: Homo sapiens, HUVEC, tumour type activated endothelial cells
Description: Proliferation Assay—Activated Endothelium:
(§1) Cells were cultured overnight at 37° C. 5% CO2. Medium was subsequently replaced with fresh medium including the compound or negative control. Cells were cultured for a period of 48 hrs. An MTT assay was performed to measure changes in cell numbers. Briefly, 20 μl of MTT reagent was added to cells containing 100 μl of EGM2 and incubated at 37° C. for 2 hours.

[2] = test system: Human umbilical vein endothelial cells (HUVECs), normal quiescent type (Norm); test: Proliferation Assay - Quiescent Endothelium (MTT); settings: HUVEC
Description: Proliferation Assay—Quiescent Endothelium:
as §1, with “EBM2+0.5% FBS” for “EGM2”

MCF-7 = test: Growth inhibition, Sulforhodamine B (SRB) or Systmex cell counting (CC) assay, MCF-7; settings: Homo sapiens, MCF7, concentration required to inhibit net cell growth by 50%, read-out: Cancer cell line IC50

| IC50 (MDA-MB-231) | IC50 (MCF-7) | SMILES | IC50 [1] | IC50 [2] | potency towards activated (tumour) versus quiescent (normal) endothelial cells ([1]; comparison of activated and quiescent HUVEC assays, FIGS. 1 and 2, Table 1) |
| --- | --- | --- | --- | --- | --- |
| 1 to 10 nM | – | COC(=O)c1oc2c(O)c(OC)ccc2c1C(=O)c1cc(OC)c(OC)c(OC)c1 [Example 17, 7-Hydroxy-6-methoxy-3-(3,4,5-trimethoxy-benzoyl)-benzofuran-2-methylcarboxylate] | 1 to 10 nM | 1 to 10 nM | – |
| 1 to 10 nM | – | COC(=O)CNc1oc2c(O)c(OC)ccc2c1C(=O)c1cc(OC)c(OC)c(OC)c1 [Example 24, [7-Hydroxy-6-methoxy-3-(3,4,5-trimethoxy-benzoyl)-benzofuran-2-ylamino]-acetic acid methyl ester] | 1 to 10 nM | 1 to 10 nM | – |
| – | 2 nM | COC(=O)/C=C/c1oc2c(O)c(OC)ccc2c1C(=O)c1cc(OC)c(OC)c(OC)c1 [Example 14, (E)-3-[7-Hydroxy-6-methoxy-3-(3,4,5-trimethoxy-benzoyl)-benzofuran-2-yl]-acrylic acid methyl ester] | 0.1 to 1 nM | 1 to 10 nM | – |
| – | – | COc1cc(C(=O)c2c(CN(C)C)oc3c(O)c(OC)ccc23)cc(OC)c1OC [Example 34, 2-Dimethylaminomethylene-3-(3,4,5-tri-methoxy-benzoyl)-6-methoxy-7-hydroxy-benzo[b]furan] | 1 to 10 nM | 1 to 10 nM | – |
| – | 8 nM | CCC/C=C/c1oc2c(O)c(OC)ccc2c1C(=O)c1cc(OC)c(OC)c(OC)c1 [Example 13] | 1 to 10 nM | 1 to 10 nM | – |
| – | – | COc1ccc2c(C(=O)c3cc(OC)c(OC)c(OC)c3)c(C)sc2c1 [Example 51, 6-Methoxy-2-methyl-3-(3,4,5-trimethoxybenzoyl)benzo[b]thiophene, reference compound] | 1 to 10 nM | 1 to 10 nM | – |
| – | – | COc1cc(C(=O)c2c(N)oc3c(O)c(OC)ccc23)cc(OC)c1OC [Example 19, (2-Amino-7-hydroxy-6-methoxy-benzofuran-3-yl)-(3,4,5-trimethoxyphenyl)-methanone] | 1 to 10 nM | 1 to 10 nM | – |
| – | – | COc1cc(C(=O)c2c(CN3CCN(C)CC3)oc3c(O)c(OC)ccc23)cc(OC)c1OC [Example 37, 2-(4-Methylpiperazin-1-yl)methyl-3-(3,4,5-tri-methoxy-benzoyl)-6-methoxy-7-hydroxy-benzo[b]furan] | 10 to 100 nM | 10 to 100 nM | – |
| – | 35 nM | COc1cc(C(=O)c2c(NN)oc3c(O)c(OC)ccc23)cc(OC)c1OC [Example 10, 2-Hydrazino-7-hydroxy-6-methoxy-3-(3,4,5-trimethoxybenzoyl)-benzofuran] | 1 to 10 nM | 10 to 100 nM | – |
| – | 35 nM | COc1cc(OC)cc(C(=O)c2coc3c(O)c(OC)ccc23)c1 [Example 52, 3-(3,5-Dimethoxybenzoyl)-7-hydroxy-6-methoxybenzo[b]furan] | 100 to 1000 nM | 100 to 1000 nM | – |
| – | – | COc1cc(C(=O)c2c(C)[nH]c3c(O)c(OC)ccc23)cc(OC)c1OC [Example 39, 7-Hydroxy-6-methoxy-2-methyl-3-(3,4,5-trimethoxybenzoyl)-1H-indole] | 0.01 to 0.1 nM | 0.1 to 1 nM | – |
| – | – | COc1cc(C(=O)c2c(NCCNC(=O)OC(C)(C)C)oc3c(O)c(OC)ccc23)cc(OC)c1OC [Example 26, tert-Butyl-2-(7-hydroxy-6-methoxy-3-(3,4,5-trimethoxybenzoyl)benzofuran-2-ylamino)ethyl carbamate] | 1 to 10 nM | 1 to 10 nM | – |
| – | – | COc1cc(C(=O)c2c(NCCNC(=N)N)oc3c(O)c(OC)ccc23)cc(OC)c1OC [Example 28, 1-[2-(7-hydroxy-6-methoxy-3-(3,4,5-trimethoxybenzoyl)benzofuran-2-ylamino)ethyl]guanidine] | 100 to 1000 nM | 10 to 100 nM | – |
| – | – | COc1cc(C(=O)c2c(Cn3nnc(N)n3)oc3c(O)c(OC)ccc23)cc(OC)c1OC [Example 36, 2-(5-amino-2H-tetrazol-2-yl)-methyl-3-(3,4,5-tri-methoxy-benzoyl)-6-methoxy-7-hydroxy-benzo[b]furan] | 1 to 10 nM | 1 to 10 nM | – |
| – | – | COc1cc(C(=O)c2c(C)sc3c(O)c(OC)ccc23)cc(OC)c1OC [Example 42, 7-Hydroxy-6-methoxy-2-methyl-3-(3,4,5-trimethoxybenzoyl)benzo[b]thiophene] | 0.1 to 1 nM | 1 to 10 nM | – |
| – | 500 nM | COc1ccc2c(C(=O)c3cc(OC)c(OC)c(OC)c3)c(Br)oc2c1 [Example 3, 2-Bromo-3-(3,4,5-trimethoxybenzoyl)-6-methoxybenzofuran, reference compound] | 100 to 1000 nM | 100 to 1000 nM | – |
| – | 1.2 nM | COc1cc(C(=O)c2c(SC)oc3c(O)c(OC)ccc23)cc(OC)c1OC [Example 9, 7-Hydroxy-6-methoxy-2-methylsulfanyl-3-(3,4,5-trimethoxybenzoyl)benzofuran] | 0.1 to 1 nM | 1 to 10 nM | higher potency towards tumour endothelial cells (activated) over normal endothelial cells (quiescent) |
| – | 575 nM | COc1ccc2c(C(=O)c3cc(OC)c(OC)c(OC)c3)c(O)oc2c1 [Example 30, (2-Hydroxy-6-methoxybenzofuran-3-yl)(3,4,5-trimethoxyphenyl)methanone, reference compound] | 100 to 1000 nM | 100 to 1000 nM | – |
| – | – | COc1cc(C(=O)c2c(C)oc3c(O)c(OC)ccc23)cc(OC)c1O [Example 46, 3-(4-Hydroxy-3,5-di-methoxy-benzoyl)-7-hydroxy-6-methoxy-2-Methyl-benzo[b]furan] | 10 to 100 nM | 100 to 1000 nM | – |
| – | 260 nM | COc1cc(C(=O)c2c(NCC(=O)O)oc3c(O)c(OC)ccc23)cc(OC)c1OC [Example 23, [7-hydroxy-6-methoxy-3(3,4,5-trimethoxy-benzoyl)-benzofuran-2-ylamino]acetic acid] | 100 to 1000 nM | 100 to 1000 nM | – |
| – | – | COc1cc(C(=O)c2c(CN(C)CC(=O)O)oc3c(O)c(OC)ccc23)cc(OC)c1OC [Example 44, 2-[(N-Methyl-2-amino-aceticacid)-methenyl)-3-(3,4,5-trimethoxybenzoyl)-6-methoxy-7-hydroxy-benzo[b]furan] | 10 to 100 nM | 10 to 100 nM | – |
| – | 800 nM | COc1ccc2c(C(=O)c3c(F)c(F)c(F)c(F)c3F)coc2c1O [Example 53, 3-(Pentafluorobenzoyl)-6-methoxy-7-hydroxybenzo[b]furan] | > 1000 nM | > 1000 nM | – |
| – | – | COc1cc(C(=O)c2c(NCCS(N)(=O)=O)oc3c(O)c(OC)ccc23)cc(OC)c1OC [Example 45, 2-N-(Aminoethanesulphonamide)-3-(3,4,5-trimethoxybenzoyl)-6-methoxy-7-hydroxy-benzo[b]furan] | 1 to 10 nM | 1 to 10 nM | – |
| – | – | COC(=O)CN(C)Cc1oc2c(O)c(OC)ccc2c1C(=O)c1cc(OC)c(OC)c(OC)c1 [Example 43, 2-[(N-Methyl-2-amino-aceticacid methyl ester)-methenyl)-3-(3,4,5-trimethoxybenzoyl)-6-methoxy-7-hydroxy-benzo[b]furan] | 1 to 10 nM | 1 to 10 nM | – |
| – | – | COc1ccc2c(C(=O)c3cc(OC)c(OC)c(OC)c3)c[nH]c2c1 [Comparator H, reference compound] | 1 to 10 nM | 1 to 10 nM | – |
| – | – | COc1cc(C(=O)c2c(C)[nH]c3c(O)c(OC)ccc23)cc(OC)c1O [Example 40, 3-(3,5-Dimethoxy-4-hydroxybenzoyl)-7-hydroxy-6-methoxy-2-methyl-1H-indole] | 1 to 10 nM | 10 to 100 nM | – |
| – | 45 nM | COc1cc(C(=O)c2coc3c(O)c(OC)ccc23)cc(OC)c1OC [Example 6, 3-(3,4,5-Trimethoxybenzoyl)-6-methoxy-7-hydroxybenzofuran] | 10 to 100 nM | 10 to 100 nM | – |
| – | – | COc1cc(C(=O)c2c(Cn3ccnc3)oc3c(O)c(OC)ccc23)cc(OC)c1OC [Example 35, 2-(1H-Imidazol-1-yl)methyl-3-(3,4,5-trimethoxybenzoyl)-6-methoxy-7-hydroxy-benzo[b]furan] | 1 to 10 nM | 1 to 10 nM | – |

| SMILES | IC50 (MDA-MB-231) | IC50 (MCF-7) | IC50 [1] | IC50 [2] | potency towards activated (tumour) versus quiescent (normal) endothelial cells ([1]; comparison of activated and quiescent HUVEC assays, FIGS. 1 and 2, Table 1) |
| --- | --- | --- | --- | --- | --- |
| C#Cc1oc2c(O)c(OC)ccc2c1C(=O)c1cc(OC)c(OC)c(OC)c1 [Example 8, 2-Ethynyl-7-hydroxy-6-methoxy-3-(3,4,5-trimethoxybenzoyl)-benzofuran] | – | 3.3 nM | 1 to 10 nM | 1 to 10 nM | – |
| COc1ccc2c(C(=O)c3cc(OC)c(OC)c(OC)c3)coc2c1 [Example 5, 3-(3,4,5-Trimethoxybenzoyl)-6-methoxy-benzofuran, reference compound] | – | 55 nM | 10 to 100 nM | 10 to 100 nM | – |
| COc1ccc(/C=C\c2cc(OC)c(OC)c(OC)c2)cc1OP(=O)(O)O [Comparator B, reference compound] | – | 5 nM | 1 to 10 nM | 1 to 10 nM | – |
| CNc1oc2c(O)c(OC)ccc2c1C(=O)c1cc(OC)c(OC)c(OC)c1 [Example 18, 2-(N-Methylamino)-7-hydroxy-3-(3,4,5-trimethoxybenzoyl)-6-methoxy-benzofuran] | – | 3.5 nM | 1 to 10 nM | 0.1 to 1 nM | – |
| COc1ccc(/C=C\c2cc(OC)c(OC)c(OC)c2)cc1O [Comparator A, reference compound] | – | 5 nM | 1 to 10 nM | 1 to 10 nM | – |
